Assay results: patent publication US20080214456A1, “Lkktet and/or Lkktnt Peptide Compositions and Methods” (REGENERX BIOPHARMACEUTICALS, INC., priority 2005, published 2008)

Assays:
[1] = test system: Human corneal epithelial cells; test: BrdU incorporation cell proliferation assay in BAK-exposed corneal epithelial cells; assay type: cell-based
Protocol: (§1) Human corneal epithelial cells at approximately 80% confluence were treated with 0%, 0.001%, 0.01%, or 0.1% BAK for 15 minutes. After 3 and 24 hours of recovery in culture medium, cell proliferation was measured using a calorimetric BrdU incorporation assay. Apoptosis was measured using a calorimetric annexin-based cell death assay. […] To further assess the ability of Tb4 to prevent apoptosis, corneal epithelial cells were treated with 0.01% BAK±Tβ4 over a 5 day time course.

[2] = test system: Human corneal epithelial cells; test: annexin-based cell death (apoptosis) assay in BAK-exposed corneal epithelial cells
Protocol: as §1

[3] = 1 mcg/ml Tβ4, BAK-treated cells, 3 and 24 hour time points
[4] = 0.001%, 0.01% or 0.1% BAK for 15 minutes, 3 and 24 hours recovery

Substance	cell proliferation of BAK-treated cells in presence of Tβ4 [1, 3]	BAK-initiated epithelial cell apoptosis ([2]; 0.01% BAK ± Tβ4, longer times in culture (2 to 5 days))	apoptosis of BAK-treated cells in presence of Tβ4 [2, 3]	apoptosis compared to cells cultured in medium alone ([2]; 5 days in culture, no BAK comparison (medium alone))	corneal epithelial cell proliferation compared to control [1, 4]	apoptosis compared to control [2, 4]
Thymosin beta 4 (SDKPDMAEIEKFDKSKLKKTETQEKNPLPSKETIEQEKQAGES; Thymosin beta-4; UniProt P62328 2-44, looked up) [Tβ4]	not promoted	significantly inhibited	not inhibited	decreased apoptosis	–	–
benzalkonium chloride [BAK, reference compound]	–	–	–	–	inhibited	increased
